US20060135458A1, “Antiviral oligonucleotides” (priority 2002, published 2006)
In the oligonucleotide strings, read from the 5' end, every base follows the letter of its sugar. An asterisk marks phosphorothioate; unmarked linkages are phosphodiester. Other units and linkages are bracketed, terminal groups are in braces. A string of capitals states the bases alone. d = 2'-deoxy (DNA)

System: Bal 31
Set-up: key to the marks not given beside the values

In the case of “REP 2029: A40 (polyA) PS-ON (DNA dA*dA*dA*dA*dA*dA*dA*dA*dA*dA*dA*dA*dA*dA*dA*dA*dA*dA*dA*dA*dA*dA*dA*dA*dA*dA*dA*dA*dA*dA*dA*dA*dA*dA*dA*dA*dA*dA*dA*dA)”, the “Nuclease resistance, Bal 31” value was “++++”.
